Measurements reported in patent EP4782453A1 (Beyang Therapeutics Co., Ltd., priority 2023, dated 2025).
Where two headings read alike, the source gives them in different places.

Key:
[1] = target: T1, Menin-MLL (Homo sapiens, UniProt O00255); experiment: Inhibitory activity against Menin-MLL binding (fluorescence polarization); details: 150 nM His-Menin, 15 nM FITC-MLL, 25°C for 60 min
T1 construct: His-Menin (M1-L615 end); purchased BIORTUS BP9210
T1 sequence (O00255 1-615 isoform O00255-1): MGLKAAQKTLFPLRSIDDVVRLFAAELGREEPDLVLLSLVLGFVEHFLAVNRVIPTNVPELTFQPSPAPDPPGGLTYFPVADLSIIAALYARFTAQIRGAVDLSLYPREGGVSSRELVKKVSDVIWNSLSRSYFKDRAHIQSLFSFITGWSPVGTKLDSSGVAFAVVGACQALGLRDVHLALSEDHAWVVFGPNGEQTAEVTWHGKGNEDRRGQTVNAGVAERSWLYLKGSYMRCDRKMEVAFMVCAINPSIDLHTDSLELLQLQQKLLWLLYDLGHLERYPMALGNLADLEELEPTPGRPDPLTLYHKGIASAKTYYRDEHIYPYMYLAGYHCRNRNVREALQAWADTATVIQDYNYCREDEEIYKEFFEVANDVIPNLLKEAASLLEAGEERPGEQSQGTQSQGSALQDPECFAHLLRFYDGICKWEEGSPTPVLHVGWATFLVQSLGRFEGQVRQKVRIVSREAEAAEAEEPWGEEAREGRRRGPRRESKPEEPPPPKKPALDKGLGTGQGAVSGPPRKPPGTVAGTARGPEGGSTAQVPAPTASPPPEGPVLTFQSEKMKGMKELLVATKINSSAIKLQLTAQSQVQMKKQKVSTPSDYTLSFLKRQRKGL
Procedure, shortened: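 Fluorescence polarization competition: compound and 150 nM His-tagged menin (residues M1-L615) sit 15 min at 25 °C in pH 7.5 HEPES buffer with NaCl, DTT and BSA; 15 nM FITC-labelled MLL peptide then binds for 60 min. IC50 fitted sigmoidally from mP values, duplicate wells.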

[2] = test system: MEIS1 gene expression; experiment: Inhibition of MEIS1 gene expression in human tumor cells (qRT-PCR), MOLM-13; type: cell-based; details: MOLM-13 (carrying MLL-AF9), 48 hours of incubation, relative MEIS1 gene expression vs GAPDH
Excerpt: (§1) Experimental Example 3: Evaluation of Inhibitory Activity of Compounds Against MEISI Gene Expression in Human Tumor Cells
(§2) The effect of test samples on MEIS1 gene expression in vitro cultured human leukemia cells MV-4-11 (carrying MLL-AF4), MOLM-13 (carrying MLL-AF9), and OCI-AML3 (carrying NPM1c) was studied.
(§3) • Human acute lymphoblastic leukemia cells MV-4-11, purchased from American Type Culture Collection, Catalog Number: CRL-9591; • Human acute myeloid leukemia cells MOLM-13, purchased from COBIOER BIOSCIENCES CO., LTD, Catalog Number: CBP60678; • Human acute myeloid leukemia cells OCI-AML3, purchased from COBIOER BIOSCIENCES CO., LTD, Catalog Number: CBP60817; • MEIS1 Primer/Probe, purchased from IDT, Catalog Number: 40831613; and • GAPDH Primer/Probe, purchased from IDT, Catalog Number: 22214836.
(§4) MV-4-11 cells were cultured in an IMDM medium containing 10% fetal bovine serum, or MOLM-13 and OCI-AML3 cells were cultured in an RPMI-1640 medium containing 20% fetal bovine serum, each supplemented with 100 U·mL^-1 penicillin and 100 µg·mL^-1 streptomycin. These cells were cultured at 37°C with 5% CO2. The suspensions of individual cell lines were prepared in their respective media and seeded into 48-well plates at a density of 100,000 cells/well. On the day of the experiment, a compound stock solution was diluted in a 6-fold gradient using DMSO. Each gradient-diluted stock solution was then further diluted 250-fold with a complete medium to prepare a series of working solutions at different concentrations. Next, 250 µL of working solution (containing the complete medium with a 2-fold serial concentration of the test compound or a positive control compound, or containing a control complete medium) was added to each well. After 48 hours of incubation, cells from the 48-well plate were collected into 1 mL centrifuge tubes, centrifuged at 1000 rpm for 5 minutes, and the complete medium was removed. Cells were washed twice with 1 mL PBS and centrifuged to remove PBS. Total RNA was extracted using the RNeasy Mini Kit (250) (QIAGEN, 74106). The threshold cycle (Ct) value for gene expression was determined using the HiScript II U+ One Step qRT-PCR Probe Kit (Vazyme) (Vazyme, Q223-01), with 3 replicates per sample. The prepared reaction mixture was placed in an ABI 7500 real-time PCR instrument, and the reaction proceeded following the procedures below. [formula]
(§5) Next, for the relative MEIS1 gene expression, the concentration (EC50) that inhibits 50% of relative MEIS1 gene expression was calculated using GraphPad Prism 8 software.

[3] = test system: MEIS1 gene expression; experiment: Inhibition of MEIS1 gene expression in human tumor cells (qRT-PCR), MV-4-11; type: cell-based; details: MV4-11, MV-4-11 (carrying MLL-AF4), 48 hours of incubation, relative MEIS1 gene expression vs GAPDH, read-out: MV-4-11 MEISI EC50
Excerpt: as §1, §2, §3, §4, §5

[4] = test system: MOLM-13 (carrying MLL-AF9); experiment: Inhibition of proliferation of human tumor cells (Alamar Blue, 7 days), MOLM-13; type: cell-based; details: Homo sapiens, MOLM-13 cells (carrying MLL-AF9), method calls the value GI50
Procedure, shortened: (§6)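 GI50 from Alamar Blue fluorescence after 7-day compound exposure, duplicate wells, using Day-0 and Day-7 0.1% DMSO wells as low and high controls. MV-4-11 in IMDM/10% FBS and MOLM-13 in RPMI-1640/20% FBS at 4,000 cells/well; KG-1a in IMDM/20% FBS at 3,000 cells/well.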

[5] = test system: MV-4-11 (carrying MLL-AF4); experiment: Inhibition of proliferation of human tumor cells (Alamar Blue, 7 days), MV-4-11; type: cell-based; details: Homo sapiens, MV4-11, 168 h, MV-4-11 cells (carrying MLL-AF4), method calls the value GI50
Procedure, shortened: as §6

[6] = fluorescence polarization, read-out: Menin-MLL IC50
[7] = Menin-MLL IC50, fluorescence polarization

Row | SMILES | IC50 [1, 6] [nM] | EC50 [2] [nM] | EC50 [3] [nM] | IC50 ([4]; 168 h) [nM] | IC50 [5] [nM] | IC50 [1, 7] [nM] | IC50 ([4]; MOLM-13, 168 h) [nM]
1 | CC(=O)N1CCN(CCC[C@H](C(C)C)N2CC(c3cc(-c4ccc(F)cc4C(=O)N4CCOC[C@H]4C)c4c(F)nc(C)n4c3)C2)C[C@@H]1C [Example 331] | 14 | 20.3 | 63 |  |  |  | 
2 | CCN(C(=O)c1cc(F)ccc1-c1cc(C2CCN(C[C@H]3CC[C@H](NS(=O)(=O)CC)CC3)C2)cn2c(C)ncc12)C(C)C (mixture of isomers) [Example 30, N-ethyl-5-fluoro-2-[3-methyl-6-(1-{[(1r,4r)-4-ethanesulfonamidocyclohexyl]methyl}pyrrolidin-3-yl)imidazo[1,5-a]pyridin-8-yl]-N-(isopropyl)benzamide] |  |  | 20 |  |  | 6 | 
3 | Cc1cncc2c(-c3ccc(F)cc3C(=O)N3CCOC[C@H]3C)cc(CC3CN(CC4CCOCC4)C3)n12 [Example 260] | 3 |  | 7.6 |  | 7.1 |  | 10
4 | CC(=O)N1CCN(CCC[C@H](C(C)C)N2CC(c3cc(-c4ccc(F)cc4C(=O)N4CCOC[C@H]4C)c4c(F)nc(C)n4c3)C2)C(C)(C)C1 [Example 336] | 9 | 9.3 | 19 |  |  |  | 
5 | CC(=O)N1CC2CC(C1)N2CCC[C@H](C(C)C)N1CC(c2cc(-c3ccc(F)cc3C(=O)N3CCOC[C@H]3C)c3c(F)nc(C)n3c2)C1 [Example 346] | 3.8 | 5 | 10 | 8.3 |  |  | 
6 | CC(=O)N1CCN(CCC[C@H](C(C)C)N2CC(c3cc(-c4ccc(F)cc4C(=O)N4CCOC[C@H]4C)c4c(F)nc(C)n4c3)C2)[C@@H](C)C1 [Example 329] | 11 | 17.9 | 63 |  |  |  | 
7 | Cc1ncc2c(-c3ccc(F)cc3C(=O)N3CCOC[C@H]3C)cc(C3CN([C@H](CCCN4CCN(C5CC5)CC4)C(C)C)C3)cn12 [Example 325] |  | 4.2 | 7.6 |  |  | 3.2 | 
8 | Cc1nc(F)c2c(-c3ccc(F)cc3C(=O)N3CCOC[C@H]3C)cc(C3CN([C@@H](CO[C@H]4CCCN(C)C4)C(C)C)C3)cn12 [Example 321-1, (3R)-4-[5-fluoro-2-(1-fluoro-3-methyl-6-{1-[(2R)-3-methyl-1-{[(3S)-1-methylpiperidin-3-yl]oxy}butan-2-yl]azacyclobutan-3-yl}imidazo[1,5-a]pyridin-8yl)benzoyl]-3-methylmorpholine] | 10.7 |  | 53 | 46 | 6.4 |  | 
9 | Cc1nc(F)c2c(-c3ccc(F)cc3C(=O)N3CCC[C@H]3C)cc(C3CN(C(C)C4CCOCC4)C3)cn12 (stereo partly shown) [Example 188] | 12 |  | 42 | 27 | 9.1 |  | 

Second part, led by results:

Row | IC50 [1, 6] [nM] | EC50 [2] [nM] | EC50 [3] [nM] | IC50 ([4]; 168 h) [nM] | IC50 [5] [nM] | SMILES | IC50 [1, 7] [nM] | IC50 ([4]; MOLM-13, 168 h) [nM]
10 | 33 |  | 89 | 44 | 29 | CC(=O)N1CCC(CN2CC(c3cc(-c4ccc(F)cc4C(=O)N4CCC[C@H]4C)c4c(F)nc(C)n4c3)C2)CC1 [Example 189] |  | 
11 | 9 | 1.8 | 27 |  |  | Cc1nc(F)c2c(-c3ccc(F)cc3C(=O)N3CCOC[C@H]3C)cc(C3CN([C@H](CCCN4CCN(C(=O)C(C)C)CC4)C(C)C)C3)cn12 [Example 338] |  | 
12 | 2 | 5.5 | 4.6 |  |  | CCN(C(=O)c1cc(F)ccc1-c1cc(C2CN([C@H](CCCN3CCC[C@@H](O)C3)C(C)C)C2)cn2c(C)ncc12)C(C)C [Example 326] |  | 
13 | 10 | 6 | 26 |  |  | Cc1nc(F)c2c(-c3ccc(F)cc3C(=O)N3CCOC[C@H]3C)cc(C3CN([C@H](CCCN4CCN(C(=O)C5CC5)CC4)C(C)C)C3)cn12 [Example 341] |  | 
